This assay relates to normal human fibroblasts. The assay is described as follows: Dermodecontracting effect: spontaneous contraction of attached dermal equivalents (collagen matrix seeded with normal human fibroblasts). The assay is classed as cell-based. The following applies: dermal equivalent, contraction kinetics 0, 4, 8 and 24 hours. From the text:
The principle of this test entails studying the effect of the test product on a model of dermal equivalent consisting of a collagen matrix seeded with normal human fibroblasts.
These conditions are suited to mimic, in vitro, the dermal contractile phenomena that occur during facial expressions. Under these conditions, in fact, the cells spontaneously express tensile forces which induce a retraction of the collagen gel. […] The measurement of this surface area makes it possible to evaluate the relaxing effects of the substances brought into contact beforehand with the dermal equivalent.
[…] The experiment is repeated three times.
The dermal equivalents are prepared as described in Asselineau et al., Exp. Cell. Res., 1985,159, 536-539; Models in Dermatology, 1987, vol. 3 pp 1-7, in the following proportions: […]
The collagen used is collagen type I (commercial solution). It is extracted from rat tail or from calf skin by acid hydrolysis and stored in an acidic medium at +4° C.; it polymerizes naturally by heating at 37° C. and by decreasing the degree of acidity. […]
For this, a digital image is acquired for each treated or non-treated dermal equivalent by means of a camera (Camera CCD-Iris Sony DXC-107P) and the surface area is then calculated on each image by means of an image analysis system (Zeiss Axiovision 3.0). […]

For `c1ccc(CCCNC2CCN(CCc3ccccc3)CC2)cc1` [Compound No. 1, 1-(2-phenylethyl)-4-[N-(3-phenylpropyl)]aminopiperidine], the “reduction of the fibroblast contraction, on average over the duration of the experiment, compared with the control” value (tested at 1 μM) turned out to be 21%.
As to `CC(NC1CCN(CCc2ccccc2)CC1)c1ccccc1` (centres unmarked) [Compound No. 5, 1-(2-phenylethyl)-4-[N-(1-phenyl-ethyl)]aminopiperidine], the “reduction of the fibroblast contraction, on average over the duration of the experiment, compared with the control” value (tested at 10 μM) stood at 40%.

The record behind these values is patent publication US20070265307A1, “Administration of 4-aminopiperidine compounds for inducing and/or stimulating the growth of keratin fibers and/or preventing loss thereof” (L'OREAL, priority 2006, published 2007).
